What was measured:
aldose reductase = aldose reductase (Homo sapiens, UniProt P15121); details: cited from earlier work
Caco-2 cells [1] = experiment: PGE2 assay in Caco-2 cells; type: cell-based, human; details: preincubation with inhibitor 30 min, BFGF or PDGF 24 h
Protocol: (§1) Caco-2 cells were plated in 6 well plates at a density of 2×10^5 cells/well. After 24 hours, the medium was replaced with fresh medium containing 0.1% serum with or without, sorbinil (20 μM) followed by treatment with either 10 ng/ml BFGF or PDGF, for another 24 h. HT29 cells were plated in 6 well plate at a density of 2×10^5 cells/well. After 24 hours, medium was replaced with serum-free medium with or without, sorbinil or zopolrestat (20 μM) followed by treatment with either EGF (5 ng/ml) or BFGF (10 ng/ml) for another 24 h. The medium from each cell lines was collected from each well and analyzed for PGE2 by using an Enzyme Immuno Assay kit according to the manufacturer's instructions (Cayman Chemical Co., Inc.).
Briefly, 50 μl of diluted standard/sample were pipetted into a pre-coated goat polyclonal anti-mouse IgG 96-well plate. Aliquots (50 μl) of a PGE2 monoclonal antibody and PGE2 acetylcholine esterase (AchE) conjugate, (PGE2 tracer) were added to each well and allowed to incubate at 4° C. for 24 h. After incubation, the wells were washed five times with wash buffer containing 0.05% Tween-20, followed by the addition of 200 μl of Ellman's reagent containing acetylthiocholine and 5,5′-dithio-bis-(2-nitrobenzoic acid). Samples were read after 60 min at 412 nm with an ELISA reader. In this procedure the intensity of yellow color, is proportional to the amount of PGE2 tracer bound to the well and is inversely proportional to the amount of free PGE2 present in the well during incubation.

A549 cells [2] = experiment: Western blot of Cox-2 and iNOS in A549 cells; type: cell-based, human; details: concentration dependent
Protocol: (§2) To examine expression of any of Cox-1, Cox-2, phospho-PKC-2, GAPDH, E2F1, Cyclin D1, Cyclin E, and iNOS proteins, Western blot analyses were carried by known methods (15). Equal amounts of protein from cell extracts were subjected to 12% SDS-PAGE followed by transfer of proteins to nitrocellulose filters, probing with the indicated antibodies, and the antigen-antibody complex was detected by enhanced chemiluminescence (Pierce, Piscataway, N.J., USA).

rat VSMC cells = experiment: High glucose-induced TNF-a production in VSMC; type: cell-based; details: for high glucose-induced TNF-a secretion: preincubated 1 h, then 19.5 mM glucose, apocyanin 25 mM, calphostin C 0.2 mM, N-acetyl cysteine 10 mM, sorbinil or tolrestat 10 mM each, or AR antisense ablated
Protocol: Growth-arrested VSMC in 5.5 mM glucose (NG) were preincubated for 1 h without or with apocyanin (25 mM), D609 (100 mM), calphostin C (0.2 mM), N-acetyl cysteine (10 mM) and NF-kB inhibitor (18 mM) (FIG. 4A) and without or with sorbinil or tolrestat (10 mM each) (FIG. 4B) followed by the addition of glucose (19.5 mM) and incubation for the indicated times. AR antisense ablated VSMC were incubated with HG for the indicated times (FIG. 4C).
Growth-arrested VSMC in 5.5 mM glucose (NG) were preincubated for 1 h without or with apocyanin (25 mM), D609 (100 mM), calphostin C (0.2 mM), N-acetyl cysteine (10 mM) and NF-kB inhibitor (18 mM) respectively, followed by the addition of 19.5 mM glucose, after which the cells were incubated for 12 and 24 hrs.

A549 cells [3] = experiment: Western blot of cell cycle regulatory proteins in A549 cells; type: cell-based, human; details: various concentrations
Protocol: as §2

Caco-2 cells [4] = experiment: Reactive oxygen species in Caco-2 cells (DCFH-DA); type: cell-based, human; details: 20 μM, FGF or PDGF 10 ng/ml 60 min
Protocol: Caco-2 cells were plated in a 24-well plate at a density of 1.5×10^4 cells/well in DMEM and then serum-starved at 60-70% confluence in the absence and presence of 20 μM sorbinil or tolrestat for overnight in phenol red-free DMEM supplemented with 0.1% FBS. Cells were then pre-incubated for 30 min with the ROS-sensitive fluorophore 2′,7′-dichlorofluorescein diacetate (DCFH-DA), which is taken up and oxidized to the fluorescent dichlorofluorescein by intracellular ROS. After incubation with DCFH-DA, the cells were exposed to FGF or PDGF 10 ng/ml for 60 min and fluorescence was measured with a CytoFluorII fluorescence plate reader (PerSeptive Biosystems, Inc., Framingham, Mass.) at excitation of 485 nm and emission of 528 nm.

A549 cells [5] = experiment: A549 cell proliferation, MTT assay; type: cell-based; details: Homo sapiens, 24 hrs
Protocol: A549 cells were grown to confluence in Ham's F12K medium containing 10% FBS and harvested, and plated at 5000 cells per well in a 96-well plate. After 24 hrs A549 cells were treated with or without AR inhibitor sorbinil or tolrestat with various concentrations for another 24 hrs. Cells incubated without AR inhibitors served as control. Cell viability was determined by and MTT assay.

HT29 cells [6] = experiment: PGE2 assay in HT29 cells; type: cell-based; details: inhibitor alone
Protocol: as §1
Briefly, 50 μl of diluted standard/sample were pipetted into a pre-coated goat polyclonal anti-mouse IgG 96-well plate. Aliquots (50 μl) of a PGE2 monoclonal antibody and PGE2 acetylcholine esterase (AchE) conjugate, (PGE2 tracer) were added to each well and allowed to incubate at 4° C. for 24 h. After incubation, the wells were washed five times with wash buffer containing 0.05% Tween-20, followed by the addition of 200 μl of Ellman's reagent containing acetylthiocholine and 5,5′-dithio-bis-(2-nitrobenzoic acid). Samples were read after 60 min at 412 nm with an ELISA reader. […]

HT29 cells [7] = experiment: HT29 cell proliferation, MTT assay; type: cell-based; details: inhibitor alone
Protocol: HT29 cells were grown to confluence in McCoy's medium and harvested and plated 2,500 per well in a 96-well plate. Subconfluent cells were growth arrested in 0.1% FBS with or without AR inhibitor sorbinil or zopolrestat (20 μM). After 24 hours, EGF (5 ng/ml) or BFGF (10 ng/ml) was added to the medium and the cells were incubated for another 24 hours. Cells incubated with the AR inhibitors alone served as control. Cell viability was determined by an MTT assay.

A549 xenografts = A549 xenografts in nude mice; type: in vivo, mouse
Protocol: The levels of ROS in sections of A549 xenografts was determined using dihydroethidium (Het; Molecular Probes, Eugene, Oreg.). The Het dye gives red fluorescence when oxidized to EtBr in the presence of ROS such as O2. Serial sections ([…]) of para-formaldehyde fixed xenografts were deparafinized and rehydrated and incubated with Het dye (5 μM in PBS) for 30 min at 37° C. followed by acquisition of images using a fluorescence microscope 200× magnification.
Nine mice (20 weeks old) were divided into three groups of three animals and were treated with PBS, scrambled AR siRNA, and AR-siRNA, respectively. All nine animals were injected with 2×10^6 A549 human lung carcinoma cell suspensions in 100 μl PBS s.c. Animals were examined daily for signs of tumor growth. Treatment was given two times (day 1 and day 14) when the tumor surface area approximately 45 mm^2 (day 25). Treatment consisted of 200 μg AR-siRNA in 100 μl PBS. Control groups were treated with 200 μg/100 μl scrambled siRNA or diluent (PBS) alone. For the determination of effect of AR inhibitor, animals were fed with zopolrestat (40 mg/kg body weight) in the diet. Tumors were measured in two dimensions using calipers.
Serial sections ([…]) of para-formaldehyde fixed xenografts were deparafenized and rehydrated and incubated with peptide specific AR antibodies and developed using DakoCytomation LSAB+System-HRP kit. The intensity of staining was observed under light microscope with 200× magnification.
The results obtained from in vitro studies were confirmed by in vivo nude mice model bearing human lung carcinoma A549 cells. A549 (2×10^6) cells were implanted s.c. and allowed to grow in nu/nu nude mice to ˜45 mm^2 over a period of 25 days. Animals were grouped into control and experimental groups. Control group were fed with regular diet and experimental group was fed with AR inhibitor, Zopolrestat (after 10 days dose increased from 20 mg to 40 mg/kg/body weight) for until end of the experiment. Tumor growth was measured every two days using calipers. The photographs of animals were taken at days 1, 14, and 37 (FIGS. 20A-20B).

RAW264.7 macrophages = experiment: LPS- and lipid aldehyde-induced signaling in RAW264.7 macrophages; type: cell-based
Protocol: At the indicated times, cells were harvested for measurement of HNE (FIG. 5A), protein-HNE adducts (FIG. 5B), NF-kB (FIG. 5C), and TNF-a and IL-6 (FIG. 5D) as described in the methods. Cells were growth arrested as described above or transfected with control or AR siRNA oligonucleotides, incubated with GS-HNE-ester, or GS-DHN-ester (1 mM), and harvested for determination of NF-kB (FIG. 5E), membrane-bound total PKC (FIG. 5F).
To determine if GS-DHN serves as a cellular sensor of ROS-induced insults, its effects on phosphorylation events upstream of IKK/NF-κB activation in RAW264.7 macrophages was examined.

SW480 xenografts = test system: SW480 xenografts; parameters: tumor progression: dose or concentration left out as unconfirmed
Protocol: Nine 20-weeks-old athymic nu/nu nude mice were divided into three groups of 3 animals (Group 1: treated with PBS; Group 2: treated with scrambled siRNA and Group 3: treated with aldose-reductase siRNA). An aliquot of 2×10^6 SW480 human colon adenocarcinoma cell suspensions in 100 μl PBS was injected subcutaneously into one flank of each nu/nu nude mouse. Animals were examined daily for signs of tumor growth. Treatment was administered when the tumor surface area exceeded 45 mm^2, i.e., day 25. Treatment consisted of 200 mg aldose-reductase siRNA in 100 ml PBS administered intraperitoneally. Control groups were treated with 200 mg/100 ml scrambled siRNA, or diluent (PBS) alone. Mice were treated on days 1 and 14. Tumors were measured in two dimensions using calipers over 40 days.

[8] = compared to control and scrambled siRNA

N[C@@H](CCC(=O)N[C@@H](CSC(CC(=O)O)C(=O)O)C(=O)NCC(=O)O)C(=O)O (stereo partly drawn) [DCEG, S-(1,2-dicarboxyethyl) glutathione, γ-glutamyl-S-(1,2-dicarboxyethyl)cysteinylglycine]
inhibition of AR-catalyzed reaction of glutathionyl-propanal (aldose reductase): competitive inhibitor | inhibition of aldehyde reduction by aldose reductase (aldose reductase): competitive inhibitor

CC(=O)N[C@@H](CS)C(=O)O [N-acetylcysteine]
growth factor-induced production of PGE2 (Caco-2 cells [1]): attenuated

COc1ccc2c(C(=S)N(C)CC(=O)O)cccc2c1C(F)(F)F [tolrestat]
Cox-2 and iNOS expression (A549 cells [2]): inhibit | basal levels of TNF-a (rat VSMC cells; media containing 5.5 mM glucose, mannitol, or 3-OMG): did not affect | high glucose-induced TNF-a secretion (rat VSMC cells): prevents | E2F-1, Cyclin E and Cyclin D1 expression (A549 cells [3]): significant inhibition | growth factor-induced increase in ROS (Caco-2 cells [4]): inhibited | inhibition at 100 µM (A549 cells [5]): > 75%

O=C(O)Cc1nn(Cc2nc3cc(C(F)(F)F)ccc3s2)c(=O)c2ccccc12 [zopolrestat, 3,4-dihydro-4-oxo-3-[[5-(trifluoromethyl)-2-benzothiazolyl]methyl]-1-phthalazineacetic acid]
constitutive levels of PGE2 (HT29 cells [6]): did not inhibit | HT29 cells proliferation (HT29 cells [7]): did not cause any effect | normal weight gain of animals (A549 xenografts; zopolrestat in the diet): None of the treatments interfered | tumor progression (A549 xenografts; zopolrestat in the diet, 20 mg to 40 mg/kg/body weight): completely arrested

AR-siRNA: AR-siRNA (5′-AATCGGTGTCTCCAACTTCAA-3′; SEQ ID NO: 1) synthesized by Dharmacon Research (chemistry not given here)
ability of GS-DHN to activate NF-κB (RAW264.7 macrophages): had no effect | effects of HNE/GS-HNE on IKK-a/b phosphorylation and NF-kB translocation (RAW264.7 macrophages): significantly blunted | tumor progression (SW480 xenografts; intraperitoneally, days 1 and 14): completely arrested | normal weight gain of animals (SW480 xenografts; mouse, in vivo): without interfering | AR protein expression in xenograft sections (A549 xenografts; [8]): significantly prevention | ROS production in xenograft sections (HEt red fluorescence) (A549 xenografts; [8]): significantly reduced | progression of tumor growth (A549 xenografts; i.p. 200 μg AR-siRNA in 100 μl PBS on days 1 and 14): inhibited completely

calphostin C
high glucose-induced TNF-a secretion (rat VSMC cells): markedly decreased | growth factor-induced production of PGE2 (Caco-2 cells [1]): attenuated

glutathionyl-1,4-dihydroxynonene [GS-DHN]
increase of protein kinase C (PKC) activity after GS-DHN challenge (RAW264.7 macrophages; within 60 min): ~2.5 fold
